We go through 9 molecules from patent publication US9174995B2, “Pyrrolotriazinone derivatives” (Merck Patent GmbH, priority 2012, dated 2015).

A word on the IC50: it is the concentration that gives 50% inhibition.

In the experiment the target is T1, His-tagged Parp-1 (Homo sapiens, UniProt P09874).
T1 construct: purchased Enzo Life Sciences GmbH, Lörrach, Germany
T1 sequence (P09874 whole entry): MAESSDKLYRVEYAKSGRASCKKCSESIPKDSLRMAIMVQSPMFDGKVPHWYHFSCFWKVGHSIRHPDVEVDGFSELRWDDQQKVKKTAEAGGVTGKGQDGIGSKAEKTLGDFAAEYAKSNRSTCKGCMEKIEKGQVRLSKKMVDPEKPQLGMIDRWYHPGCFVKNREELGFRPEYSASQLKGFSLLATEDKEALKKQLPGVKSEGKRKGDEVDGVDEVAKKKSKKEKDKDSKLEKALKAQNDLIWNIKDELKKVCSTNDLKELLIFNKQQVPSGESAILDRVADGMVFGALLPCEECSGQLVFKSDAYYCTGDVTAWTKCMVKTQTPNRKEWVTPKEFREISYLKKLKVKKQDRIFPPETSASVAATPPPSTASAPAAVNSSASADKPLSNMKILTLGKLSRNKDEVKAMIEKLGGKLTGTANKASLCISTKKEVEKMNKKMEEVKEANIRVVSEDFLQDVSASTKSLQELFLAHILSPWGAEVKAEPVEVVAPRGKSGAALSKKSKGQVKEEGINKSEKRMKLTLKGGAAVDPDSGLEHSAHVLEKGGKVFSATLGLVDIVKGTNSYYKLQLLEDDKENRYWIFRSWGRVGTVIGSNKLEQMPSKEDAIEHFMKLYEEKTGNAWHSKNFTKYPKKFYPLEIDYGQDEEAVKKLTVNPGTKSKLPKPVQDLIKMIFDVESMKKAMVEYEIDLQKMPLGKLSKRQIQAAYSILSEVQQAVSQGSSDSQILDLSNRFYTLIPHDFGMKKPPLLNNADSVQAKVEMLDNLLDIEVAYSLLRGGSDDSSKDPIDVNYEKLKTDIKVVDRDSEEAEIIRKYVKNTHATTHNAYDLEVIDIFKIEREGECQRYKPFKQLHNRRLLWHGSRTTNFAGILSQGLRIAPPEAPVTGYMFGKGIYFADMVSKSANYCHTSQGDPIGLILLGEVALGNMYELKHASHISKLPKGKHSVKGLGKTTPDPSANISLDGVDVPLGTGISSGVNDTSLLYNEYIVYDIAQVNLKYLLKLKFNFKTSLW
The experiment in a line: PARP-1 autoparsylation assay (HTRF). It counts as biochemical. Conditions: PARP-1 autoparsylation HTRF assay. The source says: Description of the PARP1 Assay
Biochemical Activity Testing of PARP-1: Autoparsylation Assay
The autoparsylation assay is run in two steps: the enzymatic reaction in which His-tagged Parp-1 transfers biotinylated ADP-ribose/ADP-ribose to itself from biotinylated NAD/NAD as co-substrate and the detection reaction where a time resolved FRET between cryptate labelled anti-His antibody bound to the His tag of the enzyme and Xlent® labelled-streptavidin bound the biotin-parsylation residue is analysed. The autoparsylation activity is detectable directly via the increase in HTRF signal.
The autoparsylation assay is performed as 384-well HTRF® (Cisbio, Codolet, France) assay format in Greiner low volume nb 384-well microtiter plates. 35 nM His-tagged Parp-1 (human, recombinant, Enzo Life Sciences GmbH, Lörrach, Germany) and a mixture of 125 nM bio-NAD (Biolog, Life science Inst., Bremen, Germany) and 800 nM NAD as co-substrate are incubated in a total volume of 6 μl (100 mM Tris/HCl, 4 mM Mg-chloride, 0.01% IGEPAL® CA630, 1 mM DTT, 0.5% DMSO, pH 8, 13 ng/μl activated DNA (BPS Bioscience, San Diego, US)) in the absence or presence of the test compound (10 dilution concentrations) for 150 min at 23° C. The reaction is stopped by the addition of 4 μl of the Stop/detection solution (70 nM SA-Xlent® (Cisbio, Codolet, France), 2.5 nM Anti-His-K® (Eu-labelled anti-His, Cisbio, Codolet, France) in 50 mM HEPES, 400 mM KF, 0.1% BSA, 20 mM EDTA, pH 7.0). After 1 h incubation at room temperature the HTRF is measured with an Envision multimode reader (Perkin Elmer LAS Germany GmbH) at excitation wavelength 340 nm (laser mode) and emission wavelengths 615 nm and 665 nm. The ratio of the emission signals is determined. The full value used is the inhibitor-free reaction. The pharmacological zero value used is Olaparib (LClabs, Woburn, US) in a final concentration of 1 μM. The inhibitory values (IC50) are determined using either the program Symyx Assay Explorer® or Condosseo® from GeneData.
For orientation: Time-resolved FRET reads energy transfer from a long-lived donor to a nearby acceptor.
`Cc1cc2c(=O)[nH]c(-c3ccc(-c4cnn(C)c4)cc3)nn2c1` [Compound A13, 6-methyl-2-[4-(1-methylpyrazol-4-yl)phenyl]-3H-pyrrolo-[2,1-f][1,2,4]triazin-4-one] returned a half-inhibitory concentration (IC50) of 3 to 50 µM.

Regarding `Cc1cc2c(=O)[nH]c(-c3ccc(C(C)(C)O)cc3)nn2c1` [Compound A11, 2-[4-(1-hydroxy-1-methyl-ethyl)phenyl]-6-methyl-3H-pyrrolo[2,1-f][1,2,4]triazin-4-one], the IC50 lay in the range of 0.3 to 3 µM.

For the molecule `CC(C)(OCCO)c1ccc(-c2nn3cccc3c(=O)[nH]2)cc1` [Compound A15, 2-{4-[1-(2-hydroxy-ethoxy)-1-methyl-ethyl]-phenyl}-3H-pyrrolo[2,1-f][1,2,4]triazin-4-one], the IC50 lay in the range of 3 to 50 µM.

Molecule `CC(C)(O)c1ccc(-c2nn3cc(F)cc3c(=O)[nH]2)cc1` [Compound A12, 6-fluoro-2-[4-(1-hydroxy-1-methyl-ethyl)phenyl]-3H-pyrrolo[2,1-f][1,2,4]triazin-4-one] returned an IC50 of 0.3 to 3 µM.

On to `Cn1cc(-c2ccc(-c3nn4cccc4c(=O)[nH]3)cc2)cn1` [Compound A7, 2-[4-(1-methyl-1H-pyrazol-4-yl)-phenyl]-3H-pyrrolo[2,1-f][1,2,4]triazin-4-one], for which the IC50 lay in the range of 3 to 50 µM.

As for `CC(C)(O)c1ccc(-c2nn3cccc3c(=O)[nH]2)cc1` [Compound A5, 2-[4-(1-hydroxy-1-methyl-ethyl)-phenyl]-3H-pyrrolo[2,1-f][1,2,4]triazin-4-one], the IC50 is 3 to 50 µM.

Turning to `CC(C)(O)c1ccc(-c2nn3cc(Cl)cc3c(=O)[nH]2)cc1` [Compound A18, 6-chloro-2-[4-(1-hydroxy-1-methyl-ethyl)-phenyl]-3H-pyrrolo[2,1-f][1,2,4]triazin-4-one], the IC50 fell in the range of 3 to 50 µM.

As to `CCC(O)(CC)c1ccc(-c2nn3cccc3c(=O)[nH]2)cc1` [Compound A14, 2-[4-(1-ethyl-1-hydroxy-propyl)-phenyl]-3H-pyrrolo[2,1-f][1,2,4]triazin-4-one], the IC50 lay in the range of 3 to 50 µM.

`O=c1[nH]c(-c2ccc(C3(O)CCCC3)cc2)nn2cccc12` [Compound A21, 2-[4-(1-hydroxy-cyclopentyl)-phenyl]-3H-pyrrolo[2,1-f][1,2,4]-triazin-4-one] showed an IC50 of 3 to 50 µM.
